# Laboratory results from patent publication US4252898A.
# Like-named read-outs stand apart in the source and are kept apart here.
# Tests used:
# [1] = system: Bacteroides fragilis spp. fragilis 111; assay: Susceptibility of anaerobic bacterial isolates, agar dilution; assay type: cell-based; details: 27 hours incubation
# [2] = system: Fusobacterium necrophorum 6054A; assay: as above; assay type: cell-based; details: 27 hours incubation
# S. aureus 3074 = assay: Agar-dilution test; details: Staphylococcus aureus
# P rettgeri PR-2 = assay: Disc-plate test; details: read-out: Disc-Plate Zone Sizes
# [3] = system: Peptococcus asaccharolyticus 1302; assay: Susceptibility of anaerobic bacterial isolates, agar dilution; assay type: cell-based; details: Peptoniphilus asaccharolyticus, 27 hours incubation
# S. pyogenes C203 [4] = assay: Therapy in experimental mouse infections; details: Streptococcus pyogenes
# Peptococcus prevoti 1281 = assay: Susceptibility of anaerobic bacterial isolates, agar dilution; assay type: cell-based; details: 27 hours incubation
# [5] = system: Peptostreptococcus intermedium 1264; assay: as above; assay type: cell-based; details: 27 hours incubation
# [6] = system: Bacteroides melaninogenicus 1856/28; assay: as above; assay type: cell-based; details: Prevotella intermedia, 27 hours incubation
# S. pyogenes C203 [7] = assay: Disc-plate test; details: Streptococcus pyogenes, C203, read-out: Disc-Plate Zone Sizes
# S. aureus 3.55 = assay: Agar-dilution test; details: Staphylococcus aureus
# [8] = system: Clostridium perfringens 81; assay: microbe, parasite or virus in culture; assay type: cell-based; details: Clostridium perfringens, 81, 27 h
# [9] = system: Bacteroides fragilis ssp. fragilis 1877; assay: Susceptibility of anaerobic bacterial isolates, agar dilution; assay type: cell-based; details: 27 hours incubation
# [10] = system: Peptostreptococcus anaerobius 1428; assay: as above; assay type: cell-based; details: 27 hours incubation
# S. aureus 3055 = assay: Therapy in experimental mouse infections; details: Staphylococcus aureus, 3055, in Mus musculus
# [11] = system: Bacteroides corrodens 1874; assay: Susceptibility of anaerobic bacterial isolates, agar dilution; assay type: cell-based; details: Eikenella corrodens, 27 hours incubation
# [12] = system: Eubacterium aerofaciens 1235; assay: as above; assay type: cell-based; details: Collinsella aerofaciens, 27 hours incubation
# [13] = system: Bacteroides fragilis ssp. thetaiotaoimicron 1438; assay: as above; assay type: cell-based; details: 27 hours incubation
# S. Aureus (3 strains) = assay: Disc-plate test; details: Staphylococcus aureus, read-out: Disc-Plate Zone Sizes
# S. faecalis X-66 = assay: Agar-dilution test; details: Enterococcus faecalis, X66
# K. pneumoniae KL-14 = assay: Disc-plate test; details: Klebsiella pneumoniae, KL14, read-out: Disc-Plate Zone Sizes
# [14] = system: Clostridium septicum 1128; assay: Susceptibility of anaerobic bacterial isolates, agar dilution; assay type: cell-based; details: 27 hours incubation
# [15] = system: Fusobacterium symbiosum 1470; assay: as above; assay type: cell-based; details: 27 hours incubation
# Group D Streptococcus = assay: Disc-plate test; details: read-out: Disc-Plate Zone Sizes
# [16] = system: Bacteroides fragilis ssp. fragilis 1936B; assay: Susceptibility of anaerobic bacterial isolates, agar dilution; assay type: cell-based; details: 27 hours incubation
# E. coli Ec-14 = assay: Disc-plate test; details: Escherichia coli, EC14, read-out: Disc-Plate Zone Sizes
# [17] = system: Bacteroides melaninogenicus 2736; assay: Susceptibility of anaerobic bacterial isolates, agar dilution; assay type: cell-based; details: 27 hours incubation
# S. typhosa SA-12 = assay: Disc-plate test; details: read-out: Disc-Plate Zone Sizes
# [18] = system: Actinomyces israelii W855; assay: Susceptibility of anaerobic bacterial isolates, agar dilution; assay type: cell-based; details: 27 hours incubation
# gram positive bacteria = assay: Antibacterial activity in standard test procedures
# S. pneumoniae I [19] = assay: Disc-plate test; details: Streptococcus pneumoniae, read-out: Disc-Plate Zone Sizes
# [20] = system: Bacteroides vulgatis 1211; assay: Susceptibility of anaerobic bacterial isolates, agar dilution; assay type: cell-based; details: 27 hours incubation
# [21] = system: Propionibacterium acnes 79; assay: as above; assay type: cell-based; details: Cutibacterium acnes, 27 hours incubation
# S. pneumoniae I [22] = assay: Therapy in experimental mouse infections; details: Streptococcus pneumoniae
# NRRL 11459 [23] = assay: Inhibitor sensitivity of the producing strain (inhibitor in ISP #2 agar); assay type: cell-based, Streptomyces flocculus
# Experimental: (§1) The cell wall sugars are determined using a modification of the procedure of M. Lechevalier, "Chemical Methods as Criteria for the Separation of Actinomycetes Into Genera", workshop sponsored by the subcommittee on Actionomycetes of the American Society of Microbology, Dr. Thoman G. Pridham, Convenor, held at the Institute of Microbology, Rutgurs University, New Brunswick, N.J., 1971. The isomer of diaminopimelic acid is determined using the method of B. Becker Appl. Microbiol., 11 421 ([…]). Amino acid analysis is determined with washed cell wall fragments. Melanoid pigments are determined using ISP #6 (peptone-yeast extract iron agar) and ISP #7 (tyrosine agar). Inhibitors are tested by incorporating varing concentrations of inhibitors into ISP #2 agar plates and streaking the culture on the surface. Starch hydrolysis is determined by testing for the presence of starch with iodine on ISP #4 agar plates. Temperature range, NaCl tolerance, pH range, and antibiotic sensitivity are done using ISP #2 agar medium. The range of temperatures are: 25°, 28°, 30°, 34°, 37°, 40°, 45°, 50°, 55° C. NaCl tolerance is measured by adding NaCl to the agar to equal: 0, 1, 2, 3, 4, 5, 6, 8, 10, 12% and incubating at 30° C. for 7 days. Antibiotic sensitivity is determined using sensitivity discs padded onto seeded agar plates of ISP #2 medium and incubating at 30° C. for 14 days.
# NRRL 11459 [24] = assay: Antibiotic sensitivity of the producing strain (sensitivity discs on seeded ISP #2 agar); assay type: cell-based, Streptomyces flocculus; details: 30° C., 14 days; further: key: +: sensitive (zones of inhibition); -: resistat (no zones of inhibition)
# Experimental: as §1
# [25] = NRRL11459, NRRL 11459, ISP #2 agar plates, read-out: Inhibitor sensitivity, MIC
compound,measurement,setting,value
CCC1OC(=O)CC(O)C(C)C(OC2OC(C)C(OC3CCC(O)C(C)O3)C(N(C)C)C2O)C(CC=O)CC(C)C(=O)C=CC2(C)OC2C1C (centres unmarked),MIC,[1],64 µg/mL
same,MIC,[2],16 µg/mL
same,MIC,S. aureus 3074,2 µg/mL
same,zone of inhibition at 100 µg/disc,P rettgeri PR-2,8 mm
same,MIC,[3],2 µg/mL
same,ED50,S. pyogenes C203 [4],4.65 mg/kg
same,MIC,Peptococcus prevoti 1281,32 µg/mL
same,MIC,[5],16 µg/mL
same,MIC,[6],64 µg/mL
same,zone of inhibition at 100 µg/disc,S. pyogenes C203 [7],20 mm
same,MIC,S. aureus 3.55,1 µg/mL
same,MIC,[8],2 µg/mL
same,MIC,[9],16 µg/mL
same,MIC,[10],2 µg/mL
same,ED50,S. aureus 3055,5 mg/kg
same,MIC,[11],32 µg/mL
same,MIC,[12],2 µg/mL
same,MIC,[13],8 µg/mL
same,zone of inhibition at 100 µg/disc,S. Aureus (3 strains),24 mm
same,MIC,S. faecalis X-66,4 µg/mL
same,zone of inhibition at 100 µg/disc,K. pneumoniae KL-14,0 mm
same,MIC,[14],2 µg/mL
same,MIC,[15],4 µg/mL
same,zone of inhibition at 100 µg/disc,Group D Streptococcus,20 mm
same,MIC,[16],32 µg/mL
same,zone of inhibition at 100 µg/disc,E. coli Ec-14,10.2 mm
same,MIC,[17],32 µg/mL
same,zone of inhibition at 100 µg/disc,S. typhosa SA-12,9.9 mm
same,MIC,[18],4 µg/mL
same,antibacterial activity,gram positive bacteria,"exhibit antibacterial activity, particularly against gram positive bacteria"
same,zone of inhibition at 100 µg/disc,S. pneumoniae I [19],35 mm
same,MIC,[20],8 µg/mL
same,MIC,[21],2 µg/mL
CCC1OC(=O)CC(O)C(C)C(OC2OC(C)C(OC3CCC(O)C(C)O3)C(N(C)C)C2O)C(CCO)CC(C)C(=O)C=CC2(C)OC2C1C (centres unmarked),MIC,[1],64 µg/mL
same,MIC,[2],128 µg/mL
same,MIC,S. aureus 3074,> 128 µg/mL
same,zone of inhibition at 300 µg/disc,P rettgeri PR-2,8.6 mm
same,MIC,[3],8 µg/mL
same,ED50,S. pyogenes C203 [4],> 70 mg/kg
same,MIC,Peptococcus prevoti 1281,> 64 µg/mL
same,MIC,[5],8 µg/mL
same,MIC,[6],64 µg/mL
same,zone of inhibition at 300 µg/disc,S. pyogenes C203 [7],24.2 mm
same,MIC,S. aureus 3.55,32 µg/mL
same,MIC,[8],16 µg/mL
same,MIC,[9],64 µg/mL
same,MIC,[10],16 µg/mL
same,ED50,S. aureus 3055,> 70 mg/kg
same,MIC,[11],32 µg/mL
same,MIC,[12],8 µg/mL
same,MIC,[13],16 µg/mL
same,zone of inhibition at 300 µg/disc,S. Aureus (3 strains),27 mm
same,MIC,S. faecalis X-66,16 µg/mL
same,zone of inhibition at 300 µg/disc,K. pneumoniae KL-14,11.3 mm
same,ED50,S. pneumoniae I [22],> 70 mg/kg
same,MIC,[14],16 µg/mL
same,MIC,[15],128 µg/mL
same,zone of inhibition at 300 µg/disc,Group D Streptococcus,22.5 mm
same,MIC,[16],64 µg/mL
same,zone of inhibition at 300 µg/disc,E. coli Ec-14,14 mm
same,MIC,[17],64 µg/mL
same,zone of inhibition at 300 µg/disc,S. typhosa SA-12,8.8 mm
same,MIC,[18],8 µg/mL
same,antibacterial activity,gram positive bacteria,"exhibit antibacterial activity, particularly against gram positive bacteria"
same,zone of inhibition at 300 µg/disc,S. pneumoniae I [19],36 mm
same,MIC,[20],32 µg/mL
same,MIC,[21],1 µg/mL
O.O.O.O=C([O-])[C@H]([O-])[C@@H]([O-])C(=O)[O-].O=C([O-])[C@H]([O-])[C@@H]([O-])C(=O)[O-].[K+].[K+].[Sb+3].[Sb+3] [Antimony Potassium tartrate],"Inhibitor sensitivity, MIC","NRRL 11459 [23]; NRRL 11459, ISP #2 agar plates",250 µg/mL
O=C([O-])CC(O)(CC(=O)[O-])C(=O)[O-].[Bi+3] [Bismuth Citrate],"Inhibitor sensitivity, MIC","NRRL 11459 [23]; NRRL 11459, ISP #2 agar plates",> 500 µg/mL
CN(C)c1ccc(C(=C2C=CC(=[N+](C)C)C=C2)c2ccc(N(C)C)cc2)cc1 [Crystal Violet],MIC,NRRL 11459 [23]; [25],1 µg/mL
CC[C@H]1OC(=O)[C@H](C)[C@@H](O[C@H]2C[C@@](C)(OC)[C@@H](O)[C@H](C)O2)[C@H](C)[C@@H](O[C@@H]2O[C@H](C)C[C@H](N(C)C)[C@H]2O)[C@](C)(O)C[C@@H](C)C(=O)[C@H](C)[C@@H](O)[C@]1(C)O [Erythromycin],Antibiotic sensitivity,NRRL 11459 [24]; 15 μg/disc,+
CC(=O)OCC1=C(C(=O)O)N2C(=O)[C@@H](NC(=O)Cc3cccs3)[C@H]2SC1 [Keflin],Antibiotic sensitivity,NRRL 11459 [24]; 30 μg/disc,-
CCC[C@@H]1C[C@@H](C(=O)N[C@@H]([C@H]2O[C@H](SC)[C@H](O)[C@@H](O)[C@H]2O)[C@@H](C)O)N(C)C1 [Lincomycin],Antibiotic sensitivity,NRRL 11459 [24]; 2 μg/disc,+
C[C@@H]1[C@H](O)[C@@H](C)/C=C/C=C/CC/C=C/C=C/C=C/C=C/C(O[C@H]2O[C@H](C)[C@@H](O)[C@H](N)[C@@H]2O)CC2O[C@](O)(CC(O)C(O)CCC(O)CC(O)CC(O)CC(=O)O[C@H]1C)CC(O)C2C(=O)O (some centres unmarked) [Nystatin],Antibiotic sensitivity,NRRL 11459 [24]; 100 units/disc,-
O=[Te]([O-])[O-].[K+].[K+] [Potassium Tellurite],"Inhibitor sensitivity, MIC","NRRL 11459 [23]; NRRL 11459, ISP #2 agar plates",> 500 µg/mL
Cc1cc2nc3cc(C)c(N)cc3[n+](-c3ccccc3)c2cc1N.[Cl-] [Safranin],"Inhibitor sensitivity, MIC","NRRL 11459 [23]; NRRL 11459, ISP #2 agar plates",10 µg/mL
[N-]=[N+]=[N-] [Sodium Azide],MIC,"NRRL 11459 [23]; NRRL11459, read-out: Inhibitor sensitivity, MIC",10 µg/mL
O=[Se](O)O [Sodium Selenite],MIC,NRRL 11459 [23]; [25],25 µg/mL
[H]/N=C(/N)N[C@H]1[C@H](O)[C@@H](O)[C@H](O[C@@H]2O[C@@H](C)[C@](O)(C=O)[C@H]2O[C@@H]2O[C@@H](CO)[C@H](O)[C@@H](O)[C@@H]2NC)[C@@H](N/C(N)=N\[H])[C@@H]1O [Streptomycin],Antibiotic sensitivity,NRRL 11459 [24]; 10 μg/disc,+
CN(C)[C@@H]1C(O)=C(C(N)=O)C(=O)[C@@]2(O)C(O)=C3C(=O)c4c(O)cccc4[C@@](C)(O)[C@H]3C[C@@H]12 [Tetracycline],Antibiotic sensitivity,NRRL 11459 [24]; 30 μg/disc,+
CC(=O)[O-].[Tl+] [Thallium Acetate],"Inhibitor sensitivity, MIC",NRRL 11459 [23],< 10 µg/mL
CN[C@H](CC(C)C)C(=O)N[C@H]1C(=O)N[C@@H](CC(N)=O)C(=O)N[C@H]2C(=O)N[C@H]3C(=O)N[C@H](C(=O)N[C@H](C(=O)O)c4cc(O)cc(O)c4-c4cc3ccc4O)[C@H](O)c3ccc(c(Cl)c3)Oc3cc2cc(c3O[C@@H]2O[C@H](CO)[C@@H](O)[C@H](O)[C@H]2O[C@H]2C[C@](C)(N)[C@H](O)[C@H](C)O2)Oc2ccc(cc2Cl)[C@H]1O [Vancomycin],Antibiotic sensitivity,NRRL 11459 [24]; 30 μg/disc,+
Polymixin B,Antibiotic sensitivity,NRRL 11459 [24]; 300 units/disc,+
